Where “and” joins values, the source holds several entries; their conditions need not be identical. Equal entries are not always repeated.
Assays:
[1] = Multispecies hepatocyte MetID; format: in vitro ADME, dog; conditions: 4 h incubation with hepatocytes, 10 μM
Method: (§1) Metabolites were identified after preincubating each compound at a 10 μM final concentration with 2.5 × 10^5 hepatocytes from human, dog, cynomolgus monkey, and rat in 200 μL of Optiincubate buffer (BioIVT, Westbury, NY). […] After centrifugation, 60 μL of the supernatant was transferred to 60 μL of water for LC-MS analysis. Samples were analyzed using a Thermo Scientific Vanquish UHPLC consisting of a VH-P10-A pump, a VH-A10-A sampler module, a VH-C10-A column compartment, and the VF-D11-A UV detector coupled to an Orbitrap Fusion Lumos instrument with UVPD. A binary solvent system consisting of (A) water with 0.1% formic acid and (B) acetonitrile with 0.1% formic acid was used with an Accucore Vanquish C18+, 2.1 mm × 100 mm, 1.5 μm, UHPLC column maintained at 40 °C. The data generated by data-dependent acquisition via normal acquisition and AcquireX were processed manually with Thermo Scientific FreeStyle and assisted by Compound Discoverer 3.3.1.111 to aid in the structural assignments.

[2] = Multispecies hepatocyte MetID; format: in vitro ADME, rat; conditions: 4 h incubation with hepatocytes, 10 μM
Method: as §1

[3] = target: Adenosine A1 (Homo sapiens, UniProt P30542); experiment: LeadProfilingScreen radioligand binding
[4] = target: Adenosine A2A (Homo sapiens, UniProt P29274); experiment: LeadProfilingScreen radioligand binding
[5] = target: Adenosine A3 (Homo sapiens, UniProt P0DMS8); experiment: LeadProfilingScreen radioligand binding
[6] = target: Adrenergic α1B (Homo sapiens, UniProt P35368); experiment: LeadProfilingScreen radioligand binding
[7] = target: Adrenergic α1D (Homo sapiens, UniProt P25100); experiment: LeadProfilingScreen radioligand binding
[8] = target: Adrenergic α2A (Homo sapiens, UniProt P08913); experiment: LeadProfilingScreen radioligand binding
[9] = target: Adrenergic β2 (Homo sapiens, UniProt P07550); experiment: LeadProfilingScreen radioligand binding
[10] = target: Androgen (Testosterone) (Homo sapiens, UniProt P10275); experiment: LeadProfilingScreen radioligand binding
[11] = system: Calcium Channel L-Type, Dihydropyridine; experiment: LeadProfilingScreen radioligand binding; set-up: species or system rat
[12] = target: Calcium Channel N-Type (Rattus norvegicus, UniProt Q02294); experiment: LeadProfilingScreen radioligand binding
[13] = target: Dopamine D2S (Homo sapiens, UniProt P14416); experiment: LeadProfilingScreen radioligand binding
[14] = target: Dopamine D3 (Homo sapiens, UniProt P35462); experiment: LeadProfilingScreen radioligand binding
[15] = target: Dopamine D4.4 (Homo sapiens, UniProt P21917); experiment: LeadProfilingScreen radioligand binding
[16] = target: Estrogen Erα (Homo sapiens, UniProt P03372); experiment: LeadProfilingScreen radioligand binding
[17] = system: GABAA, Flunitrazepam, Central; experiment: LeadProfilingScreen radioligand binding; set-up: species or system rat
[18] = target: GABAB1A (Homo sapiens, UniProt Q9UBS5); experiment: LeadProfilingScreen radioligand binding
[19] = system: Glutamate, Kainate; experiment: LeadProfilingScreen radioligand binding; set-up: species or system rat
[20] = system: Glutamate, NMDA, Agonism; experiment: LeadProfilingScreen radioligand binding; set-up: species or system rat
[21] = system: Glutamate, NMDA, Phencyclidine; experiment: LeadProfilingScreen radioligand binding; set-up: species or system rat
[22] = target: Histamine H1 (Homo sapiens, UniProt P35367); experiment: LeadProfilingScreen radioligand binding
[23] = target: Histamine H2 (Homo sapiens, UniProt P25021); experiment: LeadProfilingScreen radioligand binding
[24] = target: Histamine H3 (Homo sapiens, UniProt Q9Y5N1); experiment: LeadProfilingScreen radioligand binding
[25] = system: Imidazoline I2, Central; experiment: LeadProfilingScreen radioligand binding; set-up: species or system rat
[26] = target: Interleukin IL-1 R1 (Homo sapiens, UniProt P14778); experiment: LeadProfilingScreen radioligand binding
[27] = target: Opiate κ (OP2, KOP) (Homo sapiens, UniProt P41145); experiment: LeadProfilingScreen radioligand binding
[28] = target: Opiate μ (OP3, MOP) (Homo sapiens, UniProt P35372); experiment: LeadProfilingScreen radioligand binding
[29] = target: Potassium Channel [KATP] (Cricetus cricetus, UniProt Q09427); experiment: LeadProfilingScreen radioligand binding; set-up: species or system hamster
Method: Both lead compounds, VU6047606 and VU6032735, were subjected to radioligand binding assays in a Eurofins LeadProfilingScreen SafetyScreen Panel to detect potential adverse activity, relative selectivity, and off-target activity. Compounds were screened at 10 μM and percent inhibition was monitored across 68 potential off-target G protein-coupled receptors, ion channels, nuclear hormone receptors, and transporters. ,

[30] = target: Prostanoid EP4 (Homo sapiens, UniProt P35408); experiment: LeadProfilingScreen radioligand binding
[31] = system: Purinergic P2Y, Non-Selective; experiment: LeadProfilingScreen radioligand binding; set-up: species or system rat
[32] = system: Thyroid Hormone; experiment: LeadProfilingScreen radioligand binding; set-up: species or system rat
[33] = target: Transporter, Dopamine (DAT) (Homo sapiens, UniProt Q01959); experiment: LeadProfilingScreen radioligand binding

Chain of Histamine H3 (Q9Y5N1 whole entry): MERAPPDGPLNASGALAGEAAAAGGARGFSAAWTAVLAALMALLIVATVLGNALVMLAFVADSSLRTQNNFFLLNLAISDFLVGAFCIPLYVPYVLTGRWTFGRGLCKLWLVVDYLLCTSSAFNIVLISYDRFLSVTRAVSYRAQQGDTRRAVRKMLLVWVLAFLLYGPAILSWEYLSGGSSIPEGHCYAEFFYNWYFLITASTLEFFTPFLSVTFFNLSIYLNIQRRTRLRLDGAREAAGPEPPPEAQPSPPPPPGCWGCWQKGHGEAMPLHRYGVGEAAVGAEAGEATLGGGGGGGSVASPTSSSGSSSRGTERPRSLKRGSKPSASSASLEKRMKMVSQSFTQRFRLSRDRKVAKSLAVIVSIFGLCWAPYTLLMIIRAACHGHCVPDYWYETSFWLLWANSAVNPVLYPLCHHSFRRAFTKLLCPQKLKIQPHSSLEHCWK
Chain of Opiate μ (OP3, MOP) (P35372 whole entry): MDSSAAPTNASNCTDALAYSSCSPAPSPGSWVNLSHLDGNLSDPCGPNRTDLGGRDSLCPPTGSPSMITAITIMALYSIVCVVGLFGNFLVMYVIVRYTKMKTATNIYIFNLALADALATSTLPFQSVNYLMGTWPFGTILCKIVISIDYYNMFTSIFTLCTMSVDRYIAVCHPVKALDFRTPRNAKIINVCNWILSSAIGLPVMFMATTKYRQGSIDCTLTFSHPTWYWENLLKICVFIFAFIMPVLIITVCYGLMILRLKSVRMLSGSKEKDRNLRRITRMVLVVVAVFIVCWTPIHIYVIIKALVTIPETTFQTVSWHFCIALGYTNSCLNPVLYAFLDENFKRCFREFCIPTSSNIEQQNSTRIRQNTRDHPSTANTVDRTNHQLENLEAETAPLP
Chain of Androgen (Testosterone) (P10275 whole entry): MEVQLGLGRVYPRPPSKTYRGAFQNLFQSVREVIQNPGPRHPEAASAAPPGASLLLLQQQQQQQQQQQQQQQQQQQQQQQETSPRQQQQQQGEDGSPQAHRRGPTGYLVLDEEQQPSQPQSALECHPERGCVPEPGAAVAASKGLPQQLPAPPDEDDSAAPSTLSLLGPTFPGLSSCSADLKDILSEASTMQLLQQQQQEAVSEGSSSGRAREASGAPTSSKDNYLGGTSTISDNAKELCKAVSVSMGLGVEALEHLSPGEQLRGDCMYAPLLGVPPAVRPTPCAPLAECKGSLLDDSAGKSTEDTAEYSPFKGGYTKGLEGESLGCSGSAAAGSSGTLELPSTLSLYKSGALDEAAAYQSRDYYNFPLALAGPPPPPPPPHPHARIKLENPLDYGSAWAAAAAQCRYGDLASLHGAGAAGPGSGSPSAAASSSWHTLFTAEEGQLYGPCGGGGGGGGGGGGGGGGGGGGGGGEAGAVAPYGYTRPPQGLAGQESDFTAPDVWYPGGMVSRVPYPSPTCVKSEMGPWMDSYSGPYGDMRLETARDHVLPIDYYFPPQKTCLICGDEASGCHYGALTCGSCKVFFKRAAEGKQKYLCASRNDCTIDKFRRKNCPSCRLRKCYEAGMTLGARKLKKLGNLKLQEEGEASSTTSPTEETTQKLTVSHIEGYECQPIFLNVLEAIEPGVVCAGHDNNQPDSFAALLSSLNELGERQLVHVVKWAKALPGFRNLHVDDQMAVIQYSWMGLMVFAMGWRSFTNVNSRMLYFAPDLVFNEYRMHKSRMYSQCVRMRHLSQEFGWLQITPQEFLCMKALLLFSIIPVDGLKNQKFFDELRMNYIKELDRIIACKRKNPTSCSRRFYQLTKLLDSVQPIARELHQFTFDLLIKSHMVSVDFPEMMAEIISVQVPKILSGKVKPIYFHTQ
Chain of Adrenergic β2 (P07550 whole entry): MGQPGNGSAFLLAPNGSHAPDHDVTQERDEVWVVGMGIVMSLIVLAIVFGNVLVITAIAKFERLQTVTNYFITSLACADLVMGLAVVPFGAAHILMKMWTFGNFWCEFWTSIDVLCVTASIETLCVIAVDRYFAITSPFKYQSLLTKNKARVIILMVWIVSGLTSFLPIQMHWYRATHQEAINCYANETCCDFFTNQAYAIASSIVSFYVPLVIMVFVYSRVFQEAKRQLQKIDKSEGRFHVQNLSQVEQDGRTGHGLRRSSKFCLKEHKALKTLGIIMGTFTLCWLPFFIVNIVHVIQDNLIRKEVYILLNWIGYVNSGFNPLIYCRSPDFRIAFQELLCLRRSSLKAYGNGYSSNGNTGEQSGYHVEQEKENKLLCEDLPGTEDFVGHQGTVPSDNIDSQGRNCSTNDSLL
Chain of Histamine H1 (P35367 whole entry): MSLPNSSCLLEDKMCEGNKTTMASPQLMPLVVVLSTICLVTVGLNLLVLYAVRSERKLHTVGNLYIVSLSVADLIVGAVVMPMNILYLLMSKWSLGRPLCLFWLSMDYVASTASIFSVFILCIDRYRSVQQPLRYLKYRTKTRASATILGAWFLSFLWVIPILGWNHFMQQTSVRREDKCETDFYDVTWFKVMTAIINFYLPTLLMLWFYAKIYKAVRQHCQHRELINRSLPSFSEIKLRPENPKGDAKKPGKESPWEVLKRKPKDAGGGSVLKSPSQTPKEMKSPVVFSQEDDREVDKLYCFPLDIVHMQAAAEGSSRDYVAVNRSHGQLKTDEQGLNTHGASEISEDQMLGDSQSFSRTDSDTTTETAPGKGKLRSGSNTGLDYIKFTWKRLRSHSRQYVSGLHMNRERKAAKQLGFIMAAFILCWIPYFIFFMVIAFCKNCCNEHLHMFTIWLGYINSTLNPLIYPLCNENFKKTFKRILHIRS
Chain of Adenosine A2A (P29274 whole entry): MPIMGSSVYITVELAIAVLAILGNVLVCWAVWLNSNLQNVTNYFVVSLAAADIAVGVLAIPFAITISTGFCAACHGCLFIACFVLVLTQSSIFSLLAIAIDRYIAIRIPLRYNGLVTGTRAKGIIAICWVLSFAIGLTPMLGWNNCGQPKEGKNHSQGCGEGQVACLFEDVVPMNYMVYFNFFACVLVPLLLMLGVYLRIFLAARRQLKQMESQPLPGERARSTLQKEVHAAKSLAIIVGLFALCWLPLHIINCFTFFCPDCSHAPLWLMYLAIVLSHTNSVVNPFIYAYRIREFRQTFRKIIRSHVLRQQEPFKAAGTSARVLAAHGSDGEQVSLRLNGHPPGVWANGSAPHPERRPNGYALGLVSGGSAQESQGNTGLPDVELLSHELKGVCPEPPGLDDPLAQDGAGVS
Chain of GABAB1A (Q9UBS5 15-961 limits assumed): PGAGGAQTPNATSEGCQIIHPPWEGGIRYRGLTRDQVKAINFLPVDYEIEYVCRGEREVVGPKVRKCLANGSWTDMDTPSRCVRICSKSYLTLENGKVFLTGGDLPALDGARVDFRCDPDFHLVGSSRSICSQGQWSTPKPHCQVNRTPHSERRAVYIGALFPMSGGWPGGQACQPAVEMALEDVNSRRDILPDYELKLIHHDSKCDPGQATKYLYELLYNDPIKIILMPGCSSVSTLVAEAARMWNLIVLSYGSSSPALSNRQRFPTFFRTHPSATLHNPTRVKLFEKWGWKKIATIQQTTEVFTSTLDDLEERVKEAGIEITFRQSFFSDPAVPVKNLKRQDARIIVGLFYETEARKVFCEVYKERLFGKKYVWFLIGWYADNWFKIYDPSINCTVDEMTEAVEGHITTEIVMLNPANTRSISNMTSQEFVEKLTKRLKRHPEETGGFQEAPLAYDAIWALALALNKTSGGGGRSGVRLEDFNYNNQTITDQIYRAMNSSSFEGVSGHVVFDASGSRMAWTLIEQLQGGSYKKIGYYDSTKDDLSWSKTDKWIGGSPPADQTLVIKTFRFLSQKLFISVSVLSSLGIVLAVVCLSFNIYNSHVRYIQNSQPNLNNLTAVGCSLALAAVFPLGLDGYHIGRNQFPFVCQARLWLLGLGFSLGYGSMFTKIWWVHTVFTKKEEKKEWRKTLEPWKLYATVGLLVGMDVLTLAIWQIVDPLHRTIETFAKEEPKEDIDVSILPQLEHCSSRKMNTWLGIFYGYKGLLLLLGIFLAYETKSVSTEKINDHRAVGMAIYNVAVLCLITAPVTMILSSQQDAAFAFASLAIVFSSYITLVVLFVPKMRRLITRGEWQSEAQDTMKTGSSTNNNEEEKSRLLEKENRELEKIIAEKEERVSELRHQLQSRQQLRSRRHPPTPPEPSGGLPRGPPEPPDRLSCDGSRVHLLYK
Chain of GABAB1A (O75899 42-941 partner): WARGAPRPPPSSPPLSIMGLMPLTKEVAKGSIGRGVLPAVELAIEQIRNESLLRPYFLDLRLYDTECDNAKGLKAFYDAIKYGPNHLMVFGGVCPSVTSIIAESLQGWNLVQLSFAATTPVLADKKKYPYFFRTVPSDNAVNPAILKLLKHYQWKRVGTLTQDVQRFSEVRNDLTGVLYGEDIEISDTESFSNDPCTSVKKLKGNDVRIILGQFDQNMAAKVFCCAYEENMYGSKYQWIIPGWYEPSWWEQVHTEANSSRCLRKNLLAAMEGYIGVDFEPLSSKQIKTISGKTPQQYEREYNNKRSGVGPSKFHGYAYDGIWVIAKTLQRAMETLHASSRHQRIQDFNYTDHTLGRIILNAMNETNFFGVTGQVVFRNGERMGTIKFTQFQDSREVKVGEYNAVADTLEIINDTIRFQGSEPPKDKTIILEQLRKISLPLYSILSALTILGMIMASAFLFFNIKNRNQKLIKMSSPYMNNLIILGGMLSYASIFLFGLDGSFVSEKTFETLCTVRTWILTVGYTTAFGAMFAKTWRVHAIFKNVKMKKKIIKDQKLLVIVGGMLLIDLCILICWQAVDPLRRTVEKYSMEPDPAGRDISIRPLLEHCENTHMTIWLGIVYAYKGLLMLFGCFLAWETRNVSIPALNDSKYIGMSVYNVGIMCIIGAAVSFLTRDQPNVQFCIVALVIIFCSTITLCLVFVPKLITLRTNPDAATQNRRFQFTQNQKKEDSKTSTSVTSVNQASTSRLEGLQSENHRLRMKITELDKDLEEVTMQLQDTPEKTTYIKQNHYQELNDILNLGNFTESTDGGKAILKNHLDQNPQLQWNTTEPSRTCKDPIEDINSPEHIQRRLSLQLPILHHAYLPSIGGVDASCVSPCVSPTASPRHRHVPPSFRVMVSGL

SMILES | % of Parent Related Material, Dog [1] | % of Parent Related Material, Rat [2] | inhibition at 10 µM [3] | inhibition at 10 µM [4] | inhibition at 10 µM [5] | inhibition at 10 µM [6] | inhibition at 10 µM [7] | inhibition at 10 µM [8] | inhibition at 10 µM [9] | inhibition at 10 µM [10] | % inhibition at 10 μM [11] | inhibition at 10 µM [12] | inhibition at 10 µM [13] | inhibition at 10 µM [14] | inhibition at 10 µM [15] | inhibition at 10 µM [16] | % inhibition at 10 μM [17] | inhibition at 10 µM [18] | % inhibition at 10 μM [19] | % inhibition at 10 μM [20] | further results
O=C(c1ccc(OCc2ccc(OC(F)(F)F)cc2)cc1)N1CCN(c2ccc(C(F)(F)F)cn2)CC1 [VU6032735] | > 98% | > 98% | 12% | -6% | 9% | -5% | 2% | -3% | 5% | 1% | 76% | 2% | -2% | 3% | -5% | 11% | 5% | 31% | -4% | -8% | % inhibition at 10 μM [21]: 8%; inhibition at 10 µM [22]: 14%; inhibition at 10 µM [23]: 6%; inhibition at 10 µM [24]: -16%; % inhibition at 10 μM [25]: -2%; inhibition at 10 µM [26]: -7%; inhibition at 10 µM [27]: -16%; inhibition at 10 µM [28]: 11%; inhibition at 10 µM [29]: -7%; inhibition at 10 µM [30]: -2%; % inhibition at 10 μM [31]: 24%; % inhibition at 10 μM [32]: 4%; inhibition at 10 µM [33]: 26%
Cc1cc(Cl)cc2sc(O[C@H]3CCN(C(=O)CCCS(=O)(=O)c4cccc(Br)c4)C[C@H]3F)nc12 [VU6047606] | 93.78% and > 82% | 90.93% and > 82% | 5% | 0% | 43% | 12% | 13% | -4% | 5% | 8% | 93% | -1% | -7% | 19% | -8% | 6% | 11% | 12% | -6% | -18% | % inhibition at 10 μM [21]: 6%; inhibition at 10 µM [22]: 11%; inhibition at 10 µM [23]: -24%; inhibition at 10 µM [24]: 11%; % inhibition at 10 μM [25]: 9%; inhibition at 10 µM [26]: 1%; inhibition at 10 µM [27]: -13%; inhibition at 10 µM [28]: 22%; inhibition at 10 µM [29]: -5%; inhibition at 10 µM [30]: 23%; % inhibition at 10 μM [31]: 7%; % inhibition at 10 μM [32]: 12%; inhibition at 10 µM [33]: 18%

— publication PMC12441834, “Highly Potent and Subtype-Selective Sperm-Specific Potassium Channel SLO3 Inhibitors Display High Tissue Exposure in the Murine Female Reproductive Tract” (ACS Pharmacology & Translational Science, 2025)
